Results reported in US20110060000A1, “ACRIDINE ANALOGS IN THE TREATMENT OF GLIOMAS” (priority 2009, published 2011).
“Also recorded” adds a separate entry of the source. Like-named read-outs stand apart in the source and are kept apart here.

Columns and labels:
C6 cells = assay: Cell viability / gliotoxicity in C6; assay type: cell-based; details: for C6 death relative to astrocytes: cytoplasmic exosaminidase; for inhibition of XTT conversion compared with astrocytes: C6, 24 hours of treatment
Protocol: (§1) Cells were treated for 48 hours accordingly to axis labels. At the end of the incubation time cells were prepared for the assay according to the manufacturer instructions. Luminescence values were then converted to % of survival.
(§2) Cells were treated for 48 h with the indicated concentrations of the agents. Astrocytes death was limited to 30% or lower. Suprisingly, C6 death was 3 folds higher than in astrocytes at 24 h and increased at 5 folds at 48 h. Data in U78-MG are similar to the C6 data although the effect was slightly lower but always at least 2 to 4 folds the effect seen in astrocytes.
(§3) In order to verify how the hypersensitivity of this signaling pathway in glioma cells affects the survival of the cells, viability assessments were performed using at least three unrelated biochemical tests. Initially, a commercially available kit (Cell Titer Glow) was used in the high throughput screening center for cytotoxicity screening. This test is amenable to high throughput screening techniques and, therefore, can be used for follow up of selected compounds in high or medium throughput settings. […] Since, THAP inhibits SERCA, an ATPase, and it can affect ATP levels directly the effect of THAP and TUN on these 3 cells types was also assessed using a commercially available kit that assesses metatetrazolium salts conversion (XTT). XTT assesses cell viability by probing mitochondrial integrity. […] Finally, viability of U87-MG was also assessed using a system measuring the activity of a house keeping cytosolic enzyme involved in glucose metabolism. Also using this detection system it was evident that glioma cells both C6 and U87-MG were greatly affected by induction of ERSR (FIG. 13). It is well known that prolonged ERSR leads to apoptosis, even in the presence of elevated GRP78 expression if that is coupled to significant protein unfolding. In rat cells this process is actuated via caspase 12 and ultimately via caspase 3 activation. Experiments were conducted in order to determine if the observed effect on cell viability was also paralleled by caspase 12 activation, and if there were differences, as indicated by preliminary viability data, between normal and glioma cells.

U87-MG cells = assay: Cell viability / gliotoxicity in U87-MG; assay type: cell-based
Protocol: as §1, §2
as §3, with “Experiments were conducted in order to determine if the observed effect on cell viability was also paralleled by caspase 12 activation, and if there were differences, as indicated by preliminary viability data, between normal and glioma cells.” left out

GRP78 promoter = assay: GRP78-luc reporter assay in stably transfected U87-MG clone A5; assay type: cell-based, human; details: for GRP78 promoter driven luciferase (GRP78-luc) expression: result in words
Protocol: The promoter region contains the sequence of the GRP78 promoter from −139 to +7. In this part of the promoter there are three ER stress responsive elements and the TATA box to which is linked in frame the firefly luciferase sequence.
Compounds were plated in half area 96 well plates at the final concentration of 2 μM in 5 μl of media. Cells were added in 45 μl afterwards at the density of 5000/well. Plates were read after 16 h in an Envision high efficiency plate reader. Results are represented as a plate layout in which different shadings indicate the different rows and the number indicate the different lines. As a standard negative and positive controls were located in the outer columns.
A construct coding a large part of the human GRP78 promoter, attached to the reporter gene firefly luciferase was used (see FIG. 16 for a schematic) (Yoshida et al., 1998).
The promoter region contains the sequence of the GRP78 promoter from −139 to +7. In this part of the promoter there are three ER stress responsive elements and the TATA box to which is linked in frame the firefly luciferase sequence (FIG. 16)(Yoshida et al., 1998). The construct, which was cloned in an expression vector, was transfected into E. Coli, amplified, purified and checked it by enzymatic digestion. Thereafter, C6 and U87-MG were transiently transfected with the plasmid. After 24 hours the cells were challenged with THAP and TUN for 24 hours. Although, in transient transfection only a small part of the cell population expresses the transduced gene, a significant induction by THAP and TUN was detected over 24 hours. Armed with these encouraging data human glioma cells U87-MG were transfected with both the above described construct and a construct carrying resistance to blasticidin. The sensitivity of these cells to the antibiotic has previously been assessed. 24 hours after the transfection the antibiotic at its 75% inhibitory concentration was added. The cells were given time to proliferate. Two pools called P2 and P5 were selected and luciferase expression was assessed. […] Clones from these two pools were isolated. Luciferase expression in the clones was characterized and a clone called A5, in which baseline expression of the construct was reasonably low and induction with two positive controls was large and consistent, was selected. This clone, several back up clones, and the pools were amplified and frozen in sufficient amounts to guarantee continuity in case needed. Next, the effect of the incubation time on luciferase induction was assessed. Since this assay can be affected by false negative due to toxicity of hit compounds, the incubation times were kept as short as possible. Therefore, several incubation times were tested, including 8, 16 and 24 h. The goal was not to incubate longer than 24 hours because toxicity starts to develop at that time point. […] At this time point the induction is about 6-7 fold. Previously, using a different assay, a half a million compound library was screened very easily using 2.5 thousands cells per well in 1536 plates. […] With this cell number the dynamic range is large and the fold of induction of 6-7 is maintained.
It is common practice in the field of high throughput screening to assess the so called z number of the assay. This statistical parameter indicates the suitability of a given assay for high throughput screening. The z-value in a word describes the likelihood of a single point hit not to be false positive. The z value is a number lower than or equal to one. Values above 0.5 indicate a robust assay. Values below 0.5 but above 0 indicate an assay that probably needs to be run in duplicate. Negative values indicate assays whose predictability is very low. Z values are usually determined in a high density format plate usually a 96 well plate in manual conditions or a 384-1536 plate format in automated liquid handling environment. Z value determination has been performed using half area 96 well plates in manual mode. […]

GRP78 = GRP78 protein expression (SDS-PAGE, immunoblot) in C6; assay type: cell-based, rat; details: for GRP78 expression in C6 after challenge: brief exposure (8 h), FIG. 11; for GRP78 protein expression in C6: graded concentrations, THAP 24 hours, TUN 8 hours
Protocol: Astrocytes and C6 were exposed to graded concentration of THAP as indicated in the captions for 24 hours. Thereafter, protein were extracted and run on a SDS-PAGE and immunoblotted with an anti-GRP78 antibody. Filters were exposed to ECL and films were impressed and developed (Panel B). Films were digitalized using a high resolution scanner and analyzed used imageJ (NIH). Densitometric values were averaged and plotted in the graph (Panel A). Loading conditions were checked using GAPDH housekeeping gene.
Astrocytes and C6 were exposed to TUN for 8 hours at concentrations ranging from 1.25 μg/ml to 10 μg/ml. Proteins were extracted, separated on a SDS-PAGE and immunoblotted. Filters were exposed to ECL and used to impress films (Panel B). Developed films were subsequently digitized with a high resolution scanner and analyzed with the software ImageJ (NIH). Densitometric values were averaged and plotted in the graph (Panel A).
Cells were treated as specified in the graph labeling. It is evident that glioma cells have enhanced GRP78 expression than astrocytes regardless of the challenging agent. N.T.=untreated; D=DMSO; T=TUN; Th=THAP.

[1] = same concentration range as GRP78-luc increase

| Compound | cytotoxicity compared with astrocytes (Cell Titer Glow, ATP content) (C6 cells) | C6 death relative to astrocytes (C6 cells; 24 h) [folds] | C6 death relative to astrocytes (C6 cells; 48 h) [folds] | inhibition of XTT conversion compared with astrocytes (C6 cells) | cytotoxicity compared with astrocytes (Cell Titer Glow, ATP content) (U87-MG cells) | GRP78 promoter driven luciferase (GRP78-luc) expression (GRP78 promoter) | EC50 (GRP78; Rattus norvegicus, Astrocyte, stated in GRP78 expression experiment, astrocytes and C6, read-out: EC50 of the substance) [nM] | GRP78 expression in C6 after challenge (GRP78) | GRP78 protein expression in C6 (GRP78) | gliotoxicity in C6 (C6 cells; [1]) | gliotoxicity in U87-MG (U87-MG cells; [1]) | concentration up to which GRP78-luc expression increased, after which the toxic effect was preponderant (GRP78 promoter) | hit in Prestwick library screening (value above average of negative controls + 3 SD) (GRP78 promoter; 2 μM, 5000 cells/well, read after 16 h) | cytotoxicity compared with astrocytes (Cell Titer Glow, ATP content) (C6 cells; C6, 48 hours) | cytotoxicity compared with astrocytes (Cell Titer Glow, ATP content) (U87-MG cells; U87-MG, 48 hours) |
| --- | --- | --- | --- | --- | --- | --- | --- | --- | --- | --- | --- | --- | --- | --- | --- |
| C/C=C(/C)C(=O)O[C@H]1C(C)=C2[C@H]([C@@H]1OC(=O)CCCCCCC)[C@@](C)(OC(C)=O)C[C@H](OC(=O)CCC)[C@@]1(O)[C@H]2OC(=O)[C@@]1(C)O [THAP, thapsigargin] | significantly higher cytotoxicity | 3 | 5 | significantly higher inhibition of XTT conversion than astrocytes | significantly higher cytotoxicity | increase of luciferase expression; also recorded: concentration dependent increase | 2 to 5 | enhanced significantly | stronger elevation; also recorded: dramatically higher elevation of GRP78 | – | – | – | – | – | – |
| CCN(CC)CCCC(C)Nc1c2ccc(Cl)cc2nc2ccc(OC)cc12 (stereo not drawn) [quinacrine] | – | – | – | – | – | – | – | – | – | killed very effectively | killed very effectively | up to 10 μM | potentially attractive lead compounds | – | – |
| tunicamycin | – | 3 | 5 | significantly higher inhibition of XTT conversion than astrocytes | – | increase of luciferase expression; also recorded: concentration dependent increase | – | enhanced significantly | concentration related elevation of GRP78 protein expression; also recorded: larger in C6 than in astrocytes at every concentration tested | – | – | – | – | significantly higher cytotoxicity | significantly higher cytotoxicity |
